{
  "source": "patent US20110034424A1",
  "about": "“METHOD FOR THE LONG TERM NSAID USE” (SUCAMPO AG, priority 2009, published 2011)",
  "key": {"[1]": {"system": "ulcers induced by indomethacin and by stress", "conditions": "cited from earlier work"}, "[2]": {"system": "patients with osteoarthritis and/or rheumatoid arthritis", "assay": "12-week double-blinded, randomized, dose-ranging, placebo-controlled phase 2 trial of cobiprostone with naproxen", "type": "in vivo, human", "conditions": "for Drug-related gastrointestinal adverse event rate / Median number of days in the treatment period / Related adverse event: diarrhea / Related adverse event: gastritis / Related adverse event: nausea / Related overall adverse event rate / Withdrawal rate from the trial due to an adverse event / Retention rate at Week 8 / Retention rate at Week 12: naproxen 500 mg twice a day", "procedure": "A total of 124 patients with osteoarthritis and/or rheumatoid arthritis were enrolled in 12-week, double-blinded, randomized, dose-ranging and placebo-controlled phase 2 trial. All patients in the trial received 500 mg of naproxen twice a day. There were four treatment cohorts: one cohort received placebo while the other three cohorts received 18 mcg of cobiprostone either once, twice or three times a day (daily totals of 18, 36 or 54 mcg, respectively).\nRetention rate and withdrawal rate were evaluated by the following definitions.\nRetention rate: The number of intent-to-treat subjects that remained in the trial at a specified week.\nWithdrawal Rate: The number of randomized subjects that discontinued the trial. The reasons for discontinuation were:\nb. Discontinued due to ulcer\nThe withdrawal rate can be expressed/calculated for a single reason such as adverse events, or for any combination of the discontinuation reasons."}},
  "data": [
    {"smiles": "CC[C@H](C)CC(F)(F)[C@@]1(O)CC[C@H]2[C@@H](CC(=O)[C@@H]2CCCCCCC(=O)O)O1", "note": "[cobiprostone, 7{(2R,4aR,5R,7aR)-2-[(3S)-1,1-difluoro-3-methylpentyl]-2-hydroxy-6-oxooctahydrocyclopenta[b]pyran-5-yl}heptanoic acid]", "values": [
      {"measurement": "Formation of ulcers induced by indomethacin", "setting": "[1]; animal studies, indomethacin-induced ulcers", "value": "protected against formation of ulcers"},
      {"measurement": "Formation of ulcers induced by stress", "setting": "[1]; animal studies, stress-induced ulcers", "value": "protected against formation of ulcers"},
      {"measurement": "Safety in animal studies", "setting": "[1]", "value": "acceptable safety"},
      {"measurement": "Retention rates at Week 12 compared to naproxen with placebo", "setting": "[2]; Week 12, 18, 36 and 54 mcg/day, dose-dependent increase", "value": "statistically significant"},
      {"measurement": "Drug-related gastrointestinal adverse event rate", "setting": "[2]; cobiprostone 18 mcg/day", "value": 60.0, "unit": "%"},
      {"measurement": "Median number of days in the treatment period", "setting": "[2]; cobiprostone 18 mcg/day", "value": 60.0, "unit": "days"},
      {"measurement": "Related adverse event: diarrhea", "setting": "[2]; cobiprostone 18 mcg/day", "value": 13.3, "unit": "%"},
      {"measurement": "Related adverse event: gastritis", "setting": "[2]; cobiprostone 18 mcg/day", "value": 13.3, "unit": "%"},
      {"measurement": "Related adverse event: nausea", "setting": "[2]; cobiprostone 18 mcg/day", "value": 10.0, "unit": "%"},
      {"measurement": "Related overall adverse event rate", "setting": "[2]; cobiprostone 18 mcg/day", "value": 60.0, "unit": "%"},
      {"measurement": "Withdrawal rate from the trial due to an adverse event", "setting": "[2]; cobiprostone 18 mcg/day", "value": 13.3, "unit": "%"},
      {"measurement": "Retention rate at Week 8", "setting": "[2]; cobiprostone 18 mcg/day", "value": 67, "unit": "%"},
      {"measurement": "Retention rate at Week 12", "setting": "[2]; cobiprostone 18 mcg/day, Week 12", "value": 47, "unit": "%"},
      {"measurement": "Drug-related gastrointestinal adverse event rate", "setting": "[2]; cobiprostone 36 mcg/day", "value": 67.7, "unit": "%"},
      {"measurement": "Median number of days in the treatment period", "setting": "[2]; cobiprostone 36 mcg/day", "value": 82.0, "unit": "days"},
      {"measurement": "Related adverse event: diarrhea", "setting": "[2]; cobiprostone 36 mcg/day", "value": 32.3, "unit": "%"},
      {"measurement": "Related adverse event: gastritis", "setting": "[2]; cobiprostone 36 mcg/day", "value": 6.5, "unit": "%"},
      {"measurement": "Related adverse event: nausea", "setting": "[2]; cobiprostone 36 mcg/day", "value": 16.1, "unit": "%"},
      {"measurement": "Related overall adverse event rate", "setting": "[2]; cobiprostone 36 mcg/day", "value": 71.0, "unit": "%"},
      {"measurement": "Withdrawal rate from the trial due to an adverse event", "setting": "[2]; cobiprostone 36 mcg/day", "value": 16.1, "unit": "%"},
      {"measurement": "Retention rate at Week 8", "setting": "[2]; cobiprostone 36 mcg/day", "value": 66, "unit": "%"},
      {"measurement": "Retention rate at Week 12", "setting": "[2]; cobiprostone 36 mcg/day, Week 12", "value": 52, "unit": "%"},
      {"measurement": "Drug-related gastrointestinal adverse event rate", "setting": "[2]; cobiprostone 54 mcg/day", "value": 67.7, "unit": "%"},
      {"measurement": "Median number of days in the treatment period", "setting": "[2]; cobiprostone 54 mcg/day", "value": 83.0, "unit": "days"},
      {"measurement": "Related adverse event: diarrhea", "setting": "[2]; cobiprostone 54 mcg/day", "value": 35.5, "unit": "%"},
      {"measurement": "Related adverse event: gastritis", "setting": "[2]; cobiprostone 54 mcg/day", "value": 9.7, "unit": "%"},
      {"measurement": "Related adverse event: nausea", "setting": "[2]; cobiprostone 54 mcg/day", "value": 16.1, "unit": "%"},
      {"measurement": "Related overall adverse event rate", "setting": "[2]; cobiprostone 54 mcg/day", "value": 67.7, "unit": "%"},
      {"measurement": "Withdrawal rate from the trial due to an adverse event", "setting": "[2]; cobiprostone 54 mcg/day", "value": 16.1, "unit": "%"},
      {"measurement": "Retention rate at Week 8", "setting": "[2]; cobiprostone 54 mcg/day", "value": 90, "unit": "%"},
      {"measurement": "Retention rate at Week 12", "setting": "[2]; cobiprostone 54 mcg/day, Week 12", "value": 77, "unit": "%"},
      {"measurement": "Tolerability in patients receiving NSAID therapy", "setting": "[2]; overall, 18-54 mcg/day with naproxen 500 mg twice a day", "value": "well tolerated"}
    ]}
  ]
}
